Data set [1] can be described thus: Particle size and ageing stability of perfluorooctyl bromide/lecithin emulsions (photosedimentation). Type of data set: physicochemical. To be noted: 90% w/v emulsion of perfluorooctyl bromide. The procedure:
32 g of egg-yolk lecithin and a mixture of salts whose composition is shown in detail in Table I was dispersed with Ultra Turrax under nitrogen (24000 t/min, 10 min) in 393 mL of injectable water. Perfluorooctyl bromide (PFOB, Perflubron®) (375 mL) was added slowly to this dispersion under nitrogen. The mixture was dispersed for 10 mn at 30-40° C. The coarse emulsion obtained was passed under nitrogen through a microfluidizer (M110F). After 10 passes under a pressure of 12000 psi in the chambers cooled to 35° C., the emulsion was recovered, filled in flasks then sterilized at 121° C. for 15 mn. The ageing was monitored at 5,25 and 40° C. (Table II and FIG. 1) and the average size of the particles measured by photosedimentation.
32 g of egg-yolk lecithin and a mixture of salts of the above composition (Table I) was dispersed under nitrogen using an Ultra Turrax T50 (24000 t/min, 10 min) in 379 mL of injectable water at 30-40° C. F6H8E (14.3 mL) was slowly added to this dispersion, which was stirred for 2 min. Perfluorooctyl bromide (375 mL) was then slowly added. The whole was emulsified for 10 min at 24000 t/min at 30-40° C. The coarse emulsion obtained was run under nitrogen through the microfluidizer and after 10 passes (12000 psi, 35° C.) the emulsion was filled in vials, sterilized and stored at 5,25 and 40° C. (Table II and FIG. 1). […]
The same protocol described in the example of Reference A was used but for 16 g of egg-yolk lecithin. The aging was monitored at 40° C. (Table II and FIG. 4).
The protocol described in example 1 was used with 385 mL of water, 8.38 mL of F8H8E, 16 g of lecithin and 375 mL of perfluorooctyl bromide. After microfluidization, the emulsion was sterilized and stored at 40° C. (Table II and FIG. 4). EXAMPLE 5 […]
The same protocol described in example of reference A was used but for 8 g of egg-yolk lecithin. The aging was monitored at 40° C. (Table II and FIG. 6 ) and the average size of the particles was measured by photosedimentation.
The protocol described in example 1 was used with 382 mL of water, 4,19 mL of F8H8E, 8 g of lecithin and 375 mL of perfluorooctyl bromide. After microfluidization the emulsion was sterilized and stored at 40° C. (Table II and FIG. 6).

Data set [2] is described as follows: Facilitation of emulsification of perfluorooctyl bromide: fine particles versus number of microfluidizer passes. Type of data set: physicochemical. To be noted: perfluorooctyl bromide/lecithin emulsion, fine particles d<0,12 μm (FIG. 9). The procedure: The compounds used in the methods of the invention facilitate the formation of the emulsion and lead to emulsions with fine particle size after a reduced number of passes or a reduced amount of energy. When the compound F8H8E of the invention is added to perfluorooctyl bromide/lecithin emulsion, 30% of fine particles are obtained after 10 passes. By comparison, the reference emulsion without the compounds of the invention requires 20 passes to obtain the same percentage of fine particles (FIG. 9).
The protocol described in Example 1 was used. The average particle size was measured during microfluidization after 1, 2, 3, 4, 5, 7 and 10 passes. The percentage of fine particles (d<0,12 μm) and of coarse particle (d>0,6 μm) was evaluated.
The same protocol as for reference emulsion E was used but for the addition of (F8H8E) as described in example 2.

For data set [3] the following is noted: cited from earlier work.

With `CCCCCCCCC=CC(F)(F)C(F)(F)C(F)(F)C(F)(F)C(F)(F)C(F)(F)C(F)(F)C(F)(F)F` [Example F8H8E, C8F17CH═CHC8H17], the particle size result in data set [1] (0.1% w/v EYP and an equimolar amount of F8H8E) is “about 2.75 μm”; in data set [1] (0.2% w/v of EYP and an equimolar amount of F8H8E) it was “about 1.5 μm”; in data set [1] (1% w/v of EYP and 0.7% w/v of F8H8E (FIG. 6)) it was “about 0.38 μm”; in data set [1] (2% w/v of EYP and 1.4% w/v of F8H8E (FIG. 4)) it was “about 0.23 μm”. Also, the “number of passes to obtain 30% of fine particles” value in data set [2] worked out at 10 passes.
As to `FC(F)(F)C(F)(F)C(F)(F)N(C(F)(F)C(F)(F)C(F)(F)F)C(F)(F)C(F)(F)C(F)(F)F` [perfluorotripropylamine], in data set [3], the “half retention time in liver (comparison value)” value is 65 days.

Values taken from patent US6528545B1, “Preparations comprising a fluorocarbon or highly fluorinated compound and a lipophilic/fluorophilic organic compound, and their uses” (priority 1991, dated 2003).
